Key:
[1] = NOVARTIS: Cytotoxicity against human hepatocellular carcinoma cell line (Huh7); format: toxicity, cell-based, Huh-7; conditions: Huh7 cells (hepatocellular carcinoma cell line)
Plasmodium falciparum [2] = assay: NOVARTIS: Inhibition of Plasmodium falciparum W2 (drug-resistant) proliferation in erythrocyte-based infection assay; format: functional, organism-based; conditions: Plasmodium falciparum, W2; read-out: EC50
Plasmodium falciparum [3] = assay: NOVARTIS: Inhibition of Plasmodium falciparum 3D7 (drug-susceptible) proliferation in erythrocyte-based infection assay; format: functional, organism-based; conditions: Plasmodium falciparum, 3D7

SMILES	CC50 [1]	EC50 (Plasmodium falciparum [2])	EC50 (Plasmodium falciparum [3])
Cc1cc(C)cc(-n2c(C)cc(/C=C3\SC(=Nc4ccc(Br)cc4)NC3=O)c2C)c1	> 100 µM	4450 nM	2580 nM
COc1ccc(C(OCC(=O)N2CCN(Cc3ccccc3)CC2)c2ccccc2)cn1 (centres undefined)	> 10 µM	434 nM	604 nM
CCSC1=CC(=O)c2ccccc2C1=O	5.17 µM	230 nM	551 nM
O=C(O)CCNc1ccccc1[N+](=O)[O-]	> 100 µM	> 4310 nM	> 8540 nM
CCNC(=O)/C=C/c1ccc(C(C)(C)C)cc1	> 10 µM	441 nM	> 1100 nM
CCc1ccc(C(=O)N(CC(=O)Nc2cc(C(C)(C)C)nn2-c2ccc(Cl)c(Cl)c2)C(C)C)cc1	87.8 µM	3860 nM	1730 nM
CCOC(=O)c1cnc2ccc(Cl)cc2c1Nc1ccc(OC)c(OC)c1	> 100 µM	4430 nM	2670 nM
N=c1n(CCN2CCCCC2)c2ccccc2n1CC(O)COc1ccc(Cl)cc1 (centres undefined)	6.27 µM	279 nM	521 nM
COc1ccccc1N1C(=N)S/C(=C\c2ccc(OCc3ccccc3F)cc2)C1=O	> 10 µM	434 nM	741 nM
FC(F)(F)c1cccc(Nc2nnnc3ccccc23)c1	> 10 µM	433 nM	756 nM
COc1ccc(S(=O)(=O)N=C2C=C(Nc3ccc(O)cc3)C(=O)c3ccccc32)cc1	2.45 µM	109 nM	185 nM
CC1(C)C=C(C23C=CC(C2)C2C(=C4CC(C)(C)NC(C)(C)C4)C=CC23)CC(C)(C)N1 (centres undefined)	44.7 µM	1970 nM	2230 nM
CC1(C)CN=C(NCc2ccccc2Cl)S1	34.2 µM	1480 nM	7450 nM
CC(=O)N/C(=C\c1ccc(OC(F)F)cc1)C(=O)O	> 10 µM	432 nM	> 1170 nM
N#CC(=CC=Cc1ccc([N+](=O)[O-])o1)c1nc2ccccc2[nH]1	8.69 µM	387 nM	381 nM
COCCNC(=O)[C@@H]1C[C@@H](NCCC2=C(C)CCCC2(C)C)CN1C(C)C	> 100 µM	4300 nM	> 12500 nM
CN(CCCNc1ccnc2cc(Cl)ccc12)S(=O)(=O)c1ccc(Br)cc1	6.88 µM	295 nM	186 nM
CC(C)(C)c1ccc(C(=O)Nc2ccc(NC(=O)c3ccc(-c4cccc([N+](=O)[O-])c4)o3)cc2)cc1	> 10 µM	> 429 nM	> 1460 nM
COc1ccc(CCNC(=O)CC(=O)NN=Cc2ccc(Br)cc2)cc1OC	> 10 µM	> 429 nM	> 1250 nM
CN(Cc1ccccc1)CC(O)COc1ccc(CNCCCN2CCCC2)cc1 (centres undefined)	59.8 µM	2560 nM	2380 nM
Cn1cnc2cc(OC3CCN(Cc4ccco4)CC3)ccc21	> 4.34 µM	192 nM	216 nM
CCCCN(CC)S(=O)(=O)c1cc(Br)cc2c1N(C(C)=O)CC2	> 10 µM	441 nM	1560 nM
COc1nccnc1NS(=O)(=O)c1ccc(NC(=O)c2cc3ccccc3oc2=O)cc1	> 10 µM	> 428 nM	> 1250 nM

SMILES	CC50 [1]	EC50 (Plasmodium falciparum [2])	EC50 (Plasmodium falciparum [3])
CC(=O)Nc1ccc2nc(C)sc2c1	> 10 µM	> 445 nM	> 1250 nM
Cc1ccccc1C(=O)N1CCC(n2nccc2NC(=O)CCOc2ccccc2)CC1	> 100 µM	4450 nM	> 12500 nM
CC(C)N1CCC(N2CCN(Cc3ccc4c(c3)Cc3ccccc3-4)CC2CCO)CC1 (centres undefined)	20.5 µM	905 nM	1540 nM
O=[N+]([O-])c1ccc2nc(Nc3ccccc3)c(Nc3ccccc3)nc2c1	21.7 µM	955 nM	941 nM
Cc1ccc(C)c(Nc2nc3c(s2)CCCC3)c1	> 100 µM	4500 nM	> 12500 nM
COC(=O)C1=CNC=C(C(=O)OC)C1c1cc(OC)c(OC)c(OC)c1	> 100 µM	4500 nM	8990 nM
CC(C)CNc1nc(NCCCn2ccnc2)ncc1C(=O)NCc1ccccc1	> 10 µM	443 nM	257 nM
CCn1cc(C(=O)NCCC2=CCCCC2)c(=O)c2cc(S(=O)(=O)N(C)C)ccc21	> 10 µM	> 449 nM	> 1250 nM
CCOC(=O)C1=C(C)N(c2ccc(OCC)cc2)C(=O)/C1=C\c1ccc(C(C)C)cc1	> 10 µM	439 nM	> 1280 nM
CN(C)c1ccc(C2Nc3ccccc3NC3=C2C(=O)CC(C)(C)C3)cc1 (centres undefined)	> 100 µM	4390 nM	> 12500 nM
O=C1N(c2ccccc2)C[C@@H]2C[C@@H](c3ccc(C#CCCO)cc3)N3CCC[C@@]123	16.8 µM	757 nM	832 nM
O=C(C1CCN(C(c2ccc(F)cc2)c2ccc(F)cc2)CC1)N1CCCC1	> 10 µM	447 nM	> 586 nM
c1csc(CN2CCc3nc(N4CCCCC4)sc3C2)c1	> 10 µM	446 nM	1260 nM
O=C(C=Cc1ccccc1)c1c(-c2ccccc2)c2cc([N+](=O)[O-])ccc2[nH]c1=O	> 100 µM	> 4460 nM	> 9370 nM
COC(=O)c1ccccc1NC(=O)CN(C)c1nc(-c2ccc(OC)cc2)no1	> 10 µM	449 nM	786 nM
CCCN1CCC(N2CCCC(c3[nH]ncc3-c3cccc(C(F)(F)F)c3)C2)CC1 (centres undefined)	> 10 µM	448 nM	757 nM
CCc1ccc(CN2CCC(O)(c3ccc4oc(C(=O)Nc5ccc6c(c5)OCO6)cc4c3)CC2)cc1	10.3 µM	460 nM	359 nM
O=C(Cn1ccc(=NCc2ccccc2)cc1)c1cccc([N+](=O)[O-])c1	> 10 µM	439 nM	397 nM
CC[N+](C)(CC)CCSc1nc2ccccc2c(=S)n1-c1ccc(OC)cc1	> 10 µM	451 nM	285 nM
CCCCNCCOCCOc1ccc(Br)cc1	35.7 µM	1610 nM	> 11700 nM
CC(C)N(CC(=O)Nc1cc(C(C)(C)C)nn1-c1ccc(Cl)cc1)C(=O)c1ccc(C(C)(C)C)cc1	> 100 µM	4480 nM	9960 nM
CCCCc1nc(CN2CCC3(CC2)C(=O)N(CCc2ccccc2)C(=O)N3C)c[nH]1	> 100 µM	4380 nM	> 12000 nM
CCCN1CCN(CCCNC(=O)c2ccc3c(c2)sc2nc(-c4ccc(OC)cc4)cn23)CC1	> 100 µM	4380 nM	2440 nM

SMILES	CC50 [1]	EC50 (Plasmodium falciparum [2])	EC50 (Plasmodium falciparum [3])
CN(C)c1ccc(-c2cc(-c3ccccc3)[s+]c(-c3ccccc3)c2)cc1	1.69 µM	73.7 nM	318 nM
CCOc1cccc2c1N(C(=O)c1cccc([N+](=O)[O-])c1)C(C)(C)C(=S)C2=C1SC(C(=O)OC)=C(C(=O)OC)S1	> 10 µM	444 nM	> 1250 nM
CC(c1nc2ccccc2c(=O)n1-c1ccc(Br)cc1)N1CCN(S(=O)(=O)c2ccc3ccccc3c2)C(C)C1 (centres undefined)	> 10 µM	434 nM	> 1250 nM
OCCNc1nc(Nc2ccc(Cl)cc2)nc2ccccc12	11.6 µM	508 nM	321 nM
CN(C)CCNc1ncnc2c1[nH]c1ccc(Cl)cc12	20.4 µM	886 nM	632 nM
CC(C)CC(=O)NCCCCNc1ccnc2cc(Cl)ccc12	> 10 µM	430 nM	620 nM
C=C[C@H]1CN2CC[C@H]1C[C@H]2[C@H](OC(=O)CCCC)c1ccnc2ccccc12	> 10 µM	452 nM	942 nM
C/C(Cl)=C/C[N+]1(CC#Cc2cccc3ccccc23)CCOCC1	> 10 µM	449 nM	672 nM
Cc1ccc(Cl)cc1Nc1nc2ccccc2n2c(C)nnc12	> 100 µM	4470 nM	> 12500 nM
CCN(CC)CCCC(C)Nc1ccnc2cc3ccccc3cc12 (centres undefined)	21.3 µM	933 nM	90.1 nM
COc1ccc(-c2cc(=O)c3c(O)cc(OC4OC(COC5OC(C)C(O)C(O)C5O)C(O)C(O)C4O)cc3o2)cc1 (centres undefined)	> 100 µM	4420 nM	> 12500 nM
O=[N+]([O-])c1cccc(C=NNc2nc(NN=Cc3cccc([N+](=O)[O-])c3)nc(Nc3cccc4ccccc34)n2)c1	> 10 µM	442 nM	509 nM
O=[N+]([O-])c1ccc(-c2csc(CO)n2)cc1	> 100 µM	4270 nM	> 12500 nM
CC(CC(=O)Oc1ccccc1-c1nc2ccccn2c1NC(C)(C)CC(C)(C)C)CC(C)(C)C (centres undefined)	0.796 µM	34.2 nM	242 nM
CCOc1c(Cl)cc(CNC(C)C(O)c2ccccc2)cc1OC (centres undefined)	> 10 µM	427 nM	1650 nM
CCc1ccc(N(C(=O)CCN2CCc3ccccc32)C(C(=O)NCc2ccccc2)c2ccc(OC)c(OC)c2)cc1 (centres undefined)	> 100 µM	4450 nM	5080 nM
CCCCN1Cc2ccc(C(=O)NCCN3CCOCC3)cc2N=C1c1ccc(OC)cc1	> 100 µM	4410 nM	> 10000 nM
N#C/C(=C\c1cn(Cc2ccccc2Cl)c2ccccc12)c1nn(CCO)c(N)c1C#N	> 10 µM	450 nM	500 nM
Cc1nc2c(C#N)c(C)nn2c(C)c1Cc1cccc(F)c1	> 10 µM	444 nM	437 nM
Cc1ccc(S(=O)(=O)Oc2ccc(C=NN=C(N)N)cc2)cc1	14.1 µM	631 nM	155 nM
CCOC(=O)c1sc(NC(=O)C(C)Sc2nnc(CNC(=O)c3ccc(OC)cc3)n2-c2ccccc2OC)c(C(=O)OCC)c1C (centres undefined)	> 10 µM	439 nM	> 1250 nM
C[n+]1cc(-c2ccc3cccc([N+](=O)[O-])c3n2)cc2ccccc21	> 10 µM	450 nM	364 nM

Reference: ChEMBL document CHEMBL1156829 (Proc Natl Acad Sci U S A, 2008)
